For series [1], the target named is T1, HDAC-1 (Homo sapiens, UniProt Q13547).
T1 construct: Full length; purchased BPS
The series can be described thus: HDAC-1 histone deacetylase assay (FLUOR DE LYS). The format is biochemical. The conditions noted are these: enzyme conc. 5 nM.

The target in series [2] is T2, SIRT-1 (Homo sapiens, UniProt Q96EB6).
T2 construct: 193-741; purchased BPS
The series can be described thus: SIRT-1 histone deacetylase assay (AlphaLISA). The format is biochemical. The settings on record: enzyme conc. 5 nM. On the procedure: The assay plates were read on an Enspire plate reader (PerkinElmer) using a standard AlphaLISA program.
(§1) Data was analyzed using GraphPad Prism 6.0 (La Jolla, CA). […] IC50 values were calculated as an average of at least two independent experiments.
(In general: Alpha assays give light when donor and acceptor beads are brought close together.)

Series [3] is described as follows: Liver to plasma AUC ratio, cynomolgus monkey. The format is in vivo, cynomolgus monkeys. The conditions noted are these: male, liver and plasma, po, 2.5 mg/kg, read-out: GS-080 liver to plasma AUC ratio. On the procedure: Rats and monkeys were dosed by oral gavage once with 1 mg/kg or 2.5 mg/kg, respectively. The rat study included a vehicle control group (water). Serial venous blood samples were taken at 0, 0.25, 0.5, 1, 2, 4, 6, 8, 12, and 24 hours post dose from each animal and collected into vacutainer tubes containing potassium oxalate/sodium fluoride (Thermo Fisher; BD367925) as the anti-coagulant and blood was centrifuged for plasma isolation. […] For monkey, liver samples were taken by biopsy at pre-dose, 1, 4, 24, 48, and 72 hours post dose (n = 2 per time point). Rat and monkey livers were weighed and immediately flash frozen in liquid nitrogen.
500 μL of cold HPLC grade water was added to each monkey liver biopsy sample and rat liver samples were diluted 3-fold with cold HPLC grade water. Diluted liver samples were homogenized between 1 and 3 minutes. 50 μL of plasma samples and homogenized liver samples were quenched with 200 μL of 0.05% formic acid in acetonitrile. […] An Agilent 1200 series binary pump (Santa Clara, CA; G1312A) was used for elution and separation of compounds with a Hypersil Gold C18 HPLC column (Thermo Fisher; 50 x 3.0 mm, 5 μm) over 6.75 minutes with 99–3% gradient of Mobile Phase A (1% acetonitrile in 2.5 mM ammonium formate aqueous solution pH 2.6) and 1–97% gradient Mobile Phase B (90% acetonitrile in aqueous 10 mM ammonium formate pH 6.8).

Series [4] addresses T3, KDM5A (Homo sapiens, UniProt P29375).
T3 construct: purchased Reaction Biology Corp (assay run there as a contract service)
The series can be described thus: KDM5A enzymatic assay (CisBio HTRF). The format is biochemical. How it is done:
KDM5A and 5B were tested using CisBio HTRF assay platform by Reaction Biology Corp (Malvern, PA). All concentrations are final unless noted otherwise. Inhibitors were pre-incubated with 2.5 nM KDM5A or 1.2 nM KDM5B in a 5 μL reaction mixture containing 50 mM HEPES (pH 7.5), 50 mM NaCl, 0.01% Tween 20, 0.01% BSA for 15 min temperature. The reaction was initiated by addition of 5 μL of 50 nM Biotin-H3K4me3 and incubated with gentle shaking for 45 min at RT. The reaction was quenched with 10 mM EDTA and 200 mM potassium fluoride. Upon addition of Eu-Antibody and Streptavidine-XL665, the mixture was incubated for 2 hours in the dark. The fluorescence resonance energy transfer was measured using an excitation wavelength of 320 nm and emission wavelength of 665 nm on an Envision plate reader (Perkin Elmer).
as §1

The target in series [5] is T4, NSD2 (Homo sapiens, UniProt O96028).
T4 construct: Full Length; purchased RBC (read as Reaction Biology Corporation, named)
The series can be described thus: Histone methyltransferase enzymatic assay, NSD2. The format is biochemical. The settings on record: enzyme conc. 10 nM. How it is done: (§2) Histone methyltransferase assays were performed in 96-well half-area optiplates (PerkinElmer) at room temperature. All concentrations are final unless noted otherwise. Compounds were serially diluted in DMSO and the final DMSO concentration was 1%. A 24 μL reaction mixture contained compound, enzyme, 200 nM of nucleosome or histone substrate, 400 nM ^3H-SAM (83.1 Ci/mmol), 50 mM Tris-HCl (pH 8.0), 50 mM NaCl, 5 mM MgCl2, 1 mM DTT, and 0.01% Tween-20. The plate was sealed, mixed on a Titramax plate shaker at 1200 rpm for 30 sec, and incubated at room temperature for 60 min. The reaction was quenched by addition of 24 μL mixture containing 5 mg/mL PVT-PEI beads and 300 μM unlabeled SAM in water. The plate was sealed, mixed as previously noted, incubated overnight, and read on a TopCount plate reader (PerkinElmer).
as §1

The target in series [6] is KDM3B (Homo sapiens, UniProt Q7LBC6). The series can be described thus: KDM3B enzymatic assay (AlphaLISA). The format is biochemical. How it is done: (§3) The following assay protocol was used for all histone demethylases tested except KDM1A, KDM5A, B, and D, which are described below. Compounds were serially diluted into a 384-well Alpha plate as a DMSO solution and mixed with 5 μL reaction buffer (buffer A) containing 50 mM HEPES (pH 7.0), 0.1% BSA, and 0.003% Tween-20. The enzyme of interest was pre-incubated with 15 μM of Fe^2+ for 10 min (except 30 min for KDM2B) in reaction buffer A. 5 μL of the enzyme mixture was added to each of the compound-containing wells and incubated for 10 min. The reaction was started by addition of a 5 μL mixture containing 300 nM peptide substrate, 75 μM L-ascorbic acid, and 30 μM α-ketoglutarate in buffer A. This final 15 μL of reaction mixture was incubated for 20 min for KDM5B and 1 hour for the other KDM enzymes. The reaction was quenched with 10 μL of diluted AlphaLISA Acceptor beads (1:400) in Epigenetics Buffer and incubated for 60 min. The Donor beads were diluted 1:400 into Epigenetics Buffer in the dark and 10 μL of this was added to each well and incubated for another 60 min in the dark. The assay plates were read on an Enspire plate reader (PerkinElmer) using a standard AlphaLISA program.
as §1

In series [7] the target is KDM4A (Homo sapiens, UniProt O75164). The series can be described thus: KDM4A enzymatic assay (AlphaLISA). The format is biochemical. On the procedure: as §3, §1
Series [8] has as its target KDM6B (Homo sapiens, UniProt O15054). The series can be described thus: KDM6B enzymatic assay (AlphaLISA). The format is biochemical. How it is done:
as §3, §1

In series [9] the target is PRMT5/MEP50 (Homo sapiens, UniProt O14744). The series can be described thus: Histone methyltransferase enzymatic assay, PRMT5/MEP50. The format is biochemical. The conditions noted are these: enzyme conc. 100 nM. On the procedure:
as §2, §1

Here are results for one compound from PMC9728921, “Characterization of a KDM5 small molecule inhibitor with antiviral activity against hepatitis B virus” (PLOS ONE, 2022).

Sequence of KDM4A (O75164 whole entry): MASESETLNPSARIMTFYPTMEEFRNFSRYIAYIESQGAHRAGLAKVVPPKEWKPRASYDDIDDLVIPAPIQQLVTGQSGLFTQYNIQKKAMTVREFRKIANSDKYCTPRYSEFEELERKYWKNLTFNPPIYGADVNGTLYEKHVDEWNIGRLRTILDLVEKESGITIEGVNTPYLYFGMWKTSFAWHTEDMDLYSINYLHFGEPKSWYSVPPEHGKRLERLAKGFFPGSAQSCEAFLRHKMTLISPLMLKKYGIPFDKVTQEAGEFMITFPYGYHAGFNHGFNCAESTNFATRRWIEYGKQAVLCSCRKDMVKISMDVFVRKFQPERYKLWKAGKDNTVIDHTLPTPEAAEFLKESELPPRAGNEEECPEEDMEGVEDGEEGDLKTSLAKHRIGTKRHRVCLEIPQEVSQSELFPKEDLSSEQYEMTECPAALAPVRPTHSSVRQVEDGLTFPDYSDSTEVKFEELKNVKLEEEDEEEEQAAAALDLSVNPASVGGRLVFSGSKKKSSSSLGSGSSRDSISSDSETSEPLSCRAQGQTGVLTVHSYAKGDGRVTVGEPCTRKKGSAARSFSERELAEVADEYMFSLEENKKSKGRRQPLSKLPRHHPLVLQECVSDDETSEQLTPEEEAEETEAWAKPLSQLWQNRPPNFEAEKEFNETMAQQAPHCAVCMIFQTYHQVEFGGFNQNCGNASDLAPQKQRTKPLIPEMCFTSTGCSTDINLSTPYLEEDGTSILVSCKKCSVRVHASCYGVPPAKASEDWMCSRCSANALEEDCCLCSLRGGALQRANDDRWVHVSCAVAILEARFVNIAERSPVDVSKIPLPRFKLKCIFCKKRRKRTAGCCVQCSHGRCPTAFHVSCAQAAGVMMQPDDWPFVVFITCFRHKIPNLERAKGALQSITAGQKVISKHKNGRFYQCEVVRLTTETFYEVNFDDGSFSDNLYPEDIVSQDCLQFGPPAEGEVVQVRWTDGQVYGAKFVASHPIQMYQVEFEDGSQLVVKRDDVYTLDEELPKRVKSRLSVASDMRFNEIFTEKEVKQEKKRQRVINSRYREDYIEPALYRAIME
Sequence of KDM6B (O15054 whole entry): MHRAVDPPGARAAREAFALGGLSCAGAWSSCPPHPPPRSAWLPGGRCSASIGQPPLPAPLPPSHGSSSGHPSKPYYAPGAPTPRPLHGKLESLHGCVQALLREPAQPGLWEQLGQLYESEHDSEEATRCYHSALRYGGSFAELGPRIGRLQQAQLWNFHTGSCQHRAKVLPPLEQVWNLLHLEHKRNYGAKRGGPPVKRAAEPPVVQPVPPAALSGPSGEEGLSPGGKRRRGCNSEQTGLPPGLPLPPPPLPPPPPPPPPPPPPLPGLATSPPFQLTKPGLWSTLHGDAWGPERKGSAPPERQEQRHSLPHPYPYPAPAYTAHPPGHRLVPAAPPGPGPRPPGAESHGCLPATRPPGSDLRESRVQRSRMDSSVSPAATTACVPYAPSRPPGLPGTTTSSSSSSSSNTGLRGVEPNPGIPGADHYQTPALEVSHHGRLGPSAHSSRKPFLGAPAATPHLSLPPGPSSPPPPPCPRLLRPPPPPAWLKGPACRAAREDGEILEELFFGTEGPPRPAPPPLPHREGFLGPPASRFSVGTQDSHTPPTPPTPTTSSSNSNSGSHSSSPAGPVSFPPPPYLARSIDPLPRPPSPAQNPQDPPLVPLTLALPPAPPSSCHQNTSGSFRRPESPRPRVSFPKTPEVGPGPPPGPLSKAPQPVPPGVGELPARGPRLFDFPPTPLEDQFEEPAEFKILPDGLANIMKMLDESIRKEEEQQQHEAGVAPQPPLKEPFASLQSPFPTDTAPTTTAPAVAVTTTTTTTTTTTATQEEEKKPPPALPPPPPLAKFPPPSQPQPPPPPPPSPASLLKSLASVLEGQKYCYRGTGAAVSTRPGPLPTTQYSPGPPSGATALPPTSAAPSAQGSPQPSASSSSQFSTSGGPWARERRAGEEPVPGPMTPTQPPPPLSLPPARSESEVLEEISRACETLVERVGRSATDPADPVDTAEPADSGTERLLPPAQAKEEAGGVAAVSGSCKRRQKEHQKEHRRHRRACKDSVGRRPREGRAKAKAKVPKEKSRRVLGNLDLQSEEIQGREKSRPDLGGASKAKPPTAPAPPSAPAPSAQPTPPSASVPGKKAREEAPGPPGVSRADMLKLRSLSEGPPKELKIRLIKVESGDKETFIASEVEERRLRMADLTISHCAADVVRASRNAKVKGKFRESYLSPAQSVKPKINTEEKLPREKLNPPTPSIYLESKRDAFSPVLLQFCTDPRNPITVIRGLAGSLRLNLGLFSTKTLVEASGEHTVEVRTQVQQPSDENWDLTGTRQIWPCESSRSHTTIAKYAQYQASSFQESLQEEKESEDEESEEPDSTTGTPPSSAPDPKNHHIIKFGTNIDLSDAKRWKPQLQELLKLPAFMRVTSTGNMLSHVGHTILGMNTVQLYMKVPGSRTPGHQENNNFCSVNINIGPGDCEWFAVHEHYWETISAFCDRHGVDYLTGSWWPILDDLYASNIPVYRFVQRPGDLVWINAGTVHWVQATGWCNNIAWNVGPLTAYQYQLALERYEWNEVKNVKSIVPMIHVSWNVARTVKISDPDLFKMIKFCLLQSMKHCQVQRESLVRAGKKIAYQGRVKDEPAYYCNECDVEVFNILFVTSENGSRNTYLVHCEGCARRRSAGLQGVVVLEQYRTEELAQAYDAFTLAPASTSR
Sequence of KDM3B (Q7LBC6 whole entry): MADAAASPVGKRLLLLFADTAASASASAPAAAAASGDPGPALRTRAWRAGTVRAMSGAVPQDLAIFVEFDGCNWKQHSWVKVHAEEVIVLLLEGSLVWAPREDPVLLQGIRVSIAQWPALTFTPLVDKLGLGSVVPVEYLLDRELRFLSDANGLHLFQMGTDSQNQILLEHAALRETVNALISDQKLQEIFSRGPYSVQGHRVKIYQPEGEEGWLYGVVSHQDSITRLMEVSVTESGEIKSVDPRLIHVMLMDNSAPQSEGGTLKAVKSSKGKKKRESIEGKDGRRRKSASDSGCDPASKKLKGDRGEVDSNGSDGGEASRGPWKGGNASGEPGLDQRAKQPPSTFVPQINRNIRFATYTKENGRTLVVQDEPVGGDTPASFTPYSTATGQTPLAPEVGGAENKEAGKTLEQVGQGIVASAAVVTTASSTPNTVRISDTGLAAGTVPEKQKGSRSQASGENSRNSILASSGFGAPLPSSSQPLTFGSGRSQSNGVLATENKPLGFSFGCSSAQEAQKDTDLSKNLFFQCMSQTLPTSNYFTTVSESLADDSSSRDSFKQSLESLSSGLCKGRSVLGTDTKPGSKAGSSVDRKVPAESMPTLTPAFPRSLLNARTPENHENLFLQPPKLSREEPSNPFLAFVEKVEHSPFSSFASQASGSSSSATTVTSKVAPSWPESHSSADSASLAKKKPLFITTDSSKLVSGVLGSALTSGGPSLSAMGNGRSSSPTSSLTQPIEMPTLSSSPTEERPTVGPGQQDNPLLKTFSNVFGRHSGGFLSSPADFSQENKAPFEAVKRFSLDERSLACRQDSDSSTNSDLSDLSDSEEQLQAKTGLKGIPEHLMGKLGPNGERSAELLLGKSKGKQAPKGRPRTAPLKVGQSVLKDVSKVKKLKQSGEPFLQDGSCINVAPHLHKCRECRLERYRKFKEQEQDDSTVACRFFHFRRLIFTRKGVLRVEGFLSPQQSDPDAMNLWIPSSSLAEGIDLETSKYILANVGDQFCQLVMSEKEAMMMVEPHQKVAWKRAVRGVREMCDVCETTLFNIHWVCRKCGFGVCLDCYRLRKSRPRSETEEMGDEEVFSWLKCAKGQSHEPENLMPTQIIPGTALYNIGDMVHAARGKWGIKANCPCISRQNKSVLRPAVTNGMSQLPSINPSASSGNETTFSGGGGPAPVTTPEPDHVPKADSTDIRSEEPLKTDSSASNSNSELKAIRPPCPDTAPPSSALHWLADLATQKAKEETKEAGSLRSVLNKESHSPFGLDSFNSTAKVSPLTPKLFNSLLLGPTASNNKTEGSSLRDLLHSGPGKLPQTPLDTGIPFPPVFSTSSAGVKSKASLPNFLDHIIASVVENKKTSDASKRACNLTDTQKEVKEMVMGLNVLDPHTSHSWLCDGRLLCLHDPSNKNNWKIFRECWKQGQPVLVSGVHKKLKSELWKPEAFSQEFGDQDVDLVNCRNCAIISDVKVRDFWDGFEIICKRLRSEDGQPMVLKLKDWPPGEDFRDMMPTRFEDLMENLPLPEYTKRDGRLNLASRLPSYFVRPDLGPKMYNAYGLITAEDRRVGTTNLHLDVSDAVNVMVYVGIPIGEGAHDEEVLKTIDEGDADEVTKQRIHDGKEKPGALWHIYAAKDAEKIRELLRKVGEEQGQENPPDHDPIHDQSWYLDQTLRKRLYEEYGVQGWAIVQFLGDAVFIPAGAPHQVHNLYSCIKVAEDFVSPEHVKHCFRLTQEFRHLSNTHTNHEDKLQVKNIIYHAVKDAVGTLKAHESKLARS
T2 sequence (Q96EB6 193-741): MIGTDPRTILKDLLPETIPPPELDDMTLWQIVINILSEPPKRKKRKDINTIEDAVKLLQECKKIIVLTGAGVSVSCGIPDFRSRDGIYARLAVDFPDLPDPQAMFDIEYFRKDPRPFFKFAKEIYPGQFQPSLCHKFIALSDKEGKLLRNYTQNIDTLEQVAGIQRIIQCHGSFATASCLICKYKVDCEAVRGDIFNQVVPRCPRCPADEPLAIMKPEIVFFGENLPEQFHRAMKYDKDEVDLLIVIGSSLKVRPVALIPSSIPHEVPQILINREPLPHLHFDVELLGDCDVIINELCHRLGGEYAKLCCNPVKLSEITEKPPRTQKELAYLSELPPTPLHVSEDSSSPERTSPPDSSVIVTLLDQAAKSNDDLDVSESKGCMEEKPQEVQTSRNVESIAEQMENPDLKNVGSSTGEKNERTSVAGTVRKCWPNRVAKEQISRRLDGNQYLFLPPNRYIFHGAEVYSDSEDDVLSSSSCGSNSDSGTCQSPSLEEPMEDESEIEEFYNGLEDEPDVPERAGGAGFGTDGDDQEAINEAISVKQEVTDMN

Regarding `CCN(CCN(C)C)C(=O)CNCc1cc(C(=O)O)ccn1` [GS-080], the IC50 (in general, the point on the concentration scale where inhibition reaches its midpoint) in series [1] was over 100 µM; in series [2] it was over 100 µM; in series [4] (enzyme concentration 2.5 nM, IC50 lower than enzyme concentration, likely underestimates potency) it was 0.00036 µM; in series [5], over 100 µM; in series [6] (enzyme concentration 0.1 nM), over 10 µM; in series [7] (enzyme concentration 0.2 nM), 0.0072 µM. Moreover, the IC50 in series [8] (enzyme concentration 1 nM, read-out: IC50) is 6.2 µM; in series [9] it was over 100 µM. Also, in [3], the Kp came to 176. Further, the “Fold Selectivity Compared to KDM5A” value in [4] (IC50 of KDM5A over KDM5A) was 1 fold; in series [6] (IC50 of KDM3B over KDM5A) it was > 27,800 fold; in series [7] (IC50 of KDM4A over KDM5A), 20 fold; in [8] (IC50 of KDM6B over KDM5A), > 17,200 fold.
